Consider two compounds from US20130197032A1, “[…] COMPOUNDS FOR THE TREATMENT OF NEUROLOGICAL AND […] DISORDERS” (A. CARLSSON RESEARCH AB, priority 2010, published 2013).

Assay [1] concerns synthesis of dopamine in the striatum of the brain. The settings on record: Sonesson's thesis 1995; cited from earlier work.
For assay [2] the following is noted: Sonesson's thesis 1995; cited from earlier work.
The next assay has as its target T1, human D5 receptor (Homo sapiens, UniProt P21918).
T1 construct: expressed in transfected cells; host or cells: NIH-3T3 (inferred: R-SAT host; D5 is in neither method list of b200)
The assay is described as follows: R-SAT assay D5. The format is cell-based. The settings on record: Table 3, D5; percent response of reference SKF 38393.

For assay [3], the target named is human D4 (variant 4.2) receptor (Homo sapiens, UniProt P21917, DEL265-296). In kind it is cell-based.
The target in another assay is T2, human D3 receptor (Homo sapiens, UniProt P35462).
T2 construct: expressed in transfected cells
The assay can be described thus: R-SAT assay D3. In kind it is cell-based. As to conditions: Table 3, D3.

Another assay concerns the target T3, human D1 receptor (Homo sapiens, UniProt P21728).
T3 construct: expressed in transfected cells; host or cells: NIH-3T3 (inferred: R-SAT host; D1 is in neither method list of b200)
The assay is described as follows: R-SAT assay D1. As to conditions: Table 3, D1; percent response of reference SKF 38393. The format is cell-based.

In another assay the target is D2 receptors (Homo sapiens, UniProt P14416). The assay is described as follows: BRET2 functional antagonism of dopamine at D2 (Schild analysis). In kind it is cell-based. Set-up: expressed in transfected cells; host or cells: HEK-293T.
Chain of D2 receptors (P14416 1-414 isoform P14416-2): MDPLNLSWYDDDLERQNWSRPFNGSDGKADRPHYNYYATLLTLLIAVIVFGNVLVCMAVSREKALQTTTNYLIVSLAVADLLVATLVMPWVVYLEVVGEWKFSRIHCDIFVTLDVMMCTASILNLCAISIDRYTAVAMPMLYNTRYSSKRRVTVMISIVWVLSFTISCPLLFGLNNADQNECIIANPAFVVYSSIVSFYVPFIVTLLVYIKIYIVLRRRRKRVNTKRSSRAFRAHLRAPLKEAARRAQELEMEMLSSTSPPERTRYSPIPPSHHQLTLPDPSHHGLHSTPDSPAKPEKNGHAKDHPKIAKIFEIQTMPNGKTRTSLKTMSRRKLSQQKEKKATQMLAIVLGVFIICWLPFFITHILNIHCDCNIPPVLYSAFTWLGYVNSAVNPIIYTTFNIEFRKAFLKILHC

T2 sequence (P35462 whole entry): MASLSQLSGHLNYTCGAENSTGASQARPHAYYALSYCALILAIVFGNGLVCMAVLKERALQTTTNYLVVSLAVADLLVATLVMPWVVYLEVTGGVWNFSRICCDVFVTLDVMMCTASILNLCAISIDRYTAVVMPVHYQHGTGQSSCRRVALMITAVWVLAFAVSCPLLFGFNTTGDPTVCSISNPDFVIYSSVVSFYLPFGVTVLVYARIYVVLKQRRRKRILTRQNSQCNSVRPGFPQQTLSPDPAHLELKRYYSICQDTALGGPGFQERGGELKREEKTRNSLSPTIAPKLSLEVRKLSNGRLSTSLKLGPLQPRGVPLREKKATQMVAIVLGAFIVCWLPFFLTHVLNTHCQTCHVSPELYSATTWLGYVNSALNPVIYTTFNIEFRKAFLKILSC
T3 sequence (P21728 whole entry): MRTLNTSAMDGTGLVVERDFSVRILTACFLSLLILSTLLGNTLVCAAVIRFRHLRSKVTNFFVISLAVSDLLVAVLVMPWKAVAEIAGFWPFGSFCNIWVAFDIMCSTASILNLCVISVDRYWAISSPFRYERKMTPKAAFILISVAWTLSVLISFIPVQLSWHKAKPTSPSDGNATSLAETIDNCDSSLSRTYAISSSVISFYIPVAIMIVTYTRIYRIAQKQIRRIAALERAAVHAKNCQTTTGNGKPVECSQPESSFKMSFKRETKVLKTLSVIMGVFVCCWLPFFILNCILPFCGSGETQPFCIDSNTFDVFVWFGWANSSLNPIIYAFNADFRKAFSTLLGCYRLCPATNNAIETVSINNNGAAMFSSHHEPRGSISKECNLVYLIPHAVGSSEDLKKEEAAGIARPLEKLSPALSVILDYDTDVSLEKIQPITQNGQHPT
Chain of human D4 (variant 4.2) receptor (P21917 with tags, fused parts or gaps DEL265-296): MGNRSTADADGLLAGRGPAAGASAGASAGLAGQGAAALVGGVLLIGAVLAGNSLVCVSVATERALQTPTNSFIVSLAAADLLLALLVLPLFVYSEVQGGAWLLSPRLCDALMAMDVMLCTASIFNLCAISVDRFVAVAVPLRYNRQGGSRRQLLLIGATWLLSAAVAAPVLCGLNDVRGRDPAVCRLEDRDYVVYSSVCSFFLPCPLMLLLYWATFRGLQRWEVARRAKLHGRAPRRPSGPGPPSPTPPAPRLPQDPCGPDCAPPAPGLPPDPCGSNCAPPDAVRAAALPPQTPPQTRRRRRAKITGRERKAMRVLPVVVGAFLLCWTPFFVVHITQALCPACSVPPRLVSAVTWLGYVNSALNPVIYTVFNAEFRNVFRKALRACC
T1 sequence (P21918 whole entry): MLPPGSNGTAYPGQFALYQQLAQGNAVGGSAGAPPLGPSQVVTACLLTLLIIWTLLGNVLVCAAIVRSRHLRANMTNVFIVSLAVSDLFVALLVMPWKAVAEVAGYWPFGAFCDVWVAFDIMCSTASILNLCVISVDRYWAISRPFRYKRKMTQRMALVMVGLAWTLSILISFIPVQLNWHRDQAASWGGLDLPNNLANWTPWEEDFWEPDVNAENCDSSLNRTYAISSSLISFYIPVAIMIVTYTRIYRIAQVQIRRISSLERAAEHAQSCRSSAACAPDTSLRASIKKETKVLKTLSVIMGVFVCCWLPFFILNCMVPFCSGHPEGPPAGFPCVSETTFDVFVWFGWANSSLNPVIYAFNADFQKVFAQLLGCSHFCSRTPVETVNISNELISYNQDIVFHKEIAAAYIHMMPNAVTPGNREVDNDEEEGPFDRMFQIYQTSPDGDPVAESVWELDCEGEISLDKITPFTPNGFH
Experimental for D2 receptors: BRET-2 signals were measured using the multiplate reader Mithras 940LB (Berthold Technologies, Bad Wildbad, Germany) and were calculated as the ratio between the Renilla luciferase emission and the GFP2 emission corrected by the background emissions of non-transfected cells.
A Schild plot (B) was constructed using the EC50 values derived from the curves in (A). The Schild plot was fitted using linear regression in GraphPad Prizm.

In the case of `CCCN1CCC[C@H](c2cccc(S(C)(=O)=O)c2)C1` [(+)-OSU6162, (3R)-3-[3-(methylsulfonyl)phenyl]-1-propylpiperidine], the “synthesis of dopamine in the striatum of the brain” value in assay [1] is “weak increase in the synthesis of dopamine in the striatum of the brain”. Besides, the “change in behavioral activity” value in assay [2] is on record as “not to induce any change in behavioral activity”.
As for `CCCN1CCC[C@@H](c2cccc(S(C)(=O)=O)c2)C1` [(−)-OSU6162, (3S)-3-[3-(methylsulfonyl)phenyl]-1-propylpiperidine], the “Eff (%)” value came to 10% at human D5 receptor, 40% in assay [3], 54% at human D3 receptor (percent response of reference Pergolide) and 11% at human D1 receptor. This compound also gave an EC50 at human D3 receptor (negative logarithm of EC50 in molar) of 3.98 µM. Also, the “slope of the Schild analysis” value on D2 receptors (functional antagonism of dopamine in BRET2 assays) was “nearly unity”. At D2 receptors (read-out: pKb from the Schild analysis (converted)), the Kb was 1.26 µM.
